Legend:
[1] = In-vitro mouse microsomal stability; assay type: in vitro ADME; conditions: compound 1 microMolar, at T = 60 minutes; for % Mean Remaining Parent with NADPH (%): mouse microsomes 0.3 mg/mL, 37 C; for % Mean Remaining Parent without NADPH (%): mouse microsomes, control omitting NADPH
Description: Human and mouse microsomal stability was determined for select compounds following the method of Houston (Houston, J B; Biochem. Pharmacol. 47, (1994), 1469).
1 μM concentration of compound and seperate human and mouse microsomes (0.3 mg/mL, BD bioscience) were used in the in-vitro assay. To ensure proper energy supply for microsomal degradation of compound, an energy regenerating system comprised of 100 mM potassium phosphate, 2 mM NADPH, 3 mM MgCl2, pH=7.4. and the microsomal protein is added to each sample and the resulting suspension is then incubated in duplicate for 60 min at 37° C. in a rotary shaker. A control is run for each test agent in duplicate omitting NADPH to detect NADPH-free degradation. At T=0 and T=60 min., an aliquot is removed from each experimental and control reaction and then mixed with an equal volume of ice-cold Stop Solution (consisting of 0.3% acetic acid in acetonitrile containing haloperidol and diclofenac as internal standards). Stopped reactions are then incubated for at least ten minutes at −20° C., and an additional volume of water is then be added. The samples are then centrifuged to remove precipitated protein, and the supernatants are then analyzed by LC-MS/MS to determine the percentage of compound remaining. The LC-MS/MS system used was an Agilent 6410 mass spectrometer coupled with an Agilent 1200 HPLC and a CTC PAL chilled autosampler, all controlled by MassHunter software (Agilent), or an ABI2000 mass spectrometer coupled with an Agilent 1100 HPLC and a CTC PAL chilled autosampler, all controlled by Analyst software (ABI). After separation on a C18 reverse phase HPLC column (Agilent, Waters, or equivalent) using an acetonitrile-water gradient system, peaks were analyzed by mass spectrometry (MS) using ESI ionization in MRM mode.

[2] = tested on: spinal nerve ligation (SNL) mouse model, mechanical allodynia; assay: Intrathecal (i.t.) administration in the SNL mouse model of pain, von Frey tactile allodynia test; assay type: in vivo; conditions: for 50% paw withdrawal threshold, mean, Day (-2) Pre-operative Baseline: group baseline prior to SNL injury, before treatment, FVB male mice
From the text: (§1) To measure the neuropathic pain inhibiting affects of the MMP inhibitors of the present invention, the spinal nerve ligation (SNL) mouse model was run on a select number of compounds. This model which began with the work of Bennet and coworkers (Bennet, G. J. et al. Pain, 33, (1988), 87-107) and was optimized by Kim and Chung (Kim, S. H.; Chung, J. M. Pain, 50, (1992), 355-363) entails first, under magnification, the removal of one-third of the transverse process and then identifying and then dissecting free the L5 spinal nerve from the adjacent L4 spinal nerve in the mouse. The L5 spinal nerve is then tightly ligated using 6.0 silk suture. The nerve injury leads to hyperalgesia which manifests itself by enhanced responses to mechanical, heat and/or cooling stimuli. In this case, mechanical hyperalgesia is tested via Von Frey monofilaments in which filaments of varying thicknesses and bending force are individually applied to the plantar surface of the foot of the mouse. The threshold force necessary for paw withdrawal decreases dramatically after the nerve surgery. Potent pain inhibitors will reverse this affect resulting in greater force needing to be applied to cause the rodent paw to withdrawal.
Following preoperative baseline (Day −2) paw threshold measurement, FVB male mice were subjected to SNL injury (Day −1). […] Over the course of the study, paw withdrawal threshold of these animals was measured in response to mechanical stimulation using the von Frey Monofilament Test. […]
(§2) Tactile Allodynia Test. Mechanical allodynia was measured using the calibrated von Frey filaments (Semmes-Weinstein monofilaments; Stoelting, Wood Dale, Ill., U.S.A.). […] The Fifty percent paw withdrawal threshold response was determined by sequentially increasing or decreasing the stimulus strength according to the “up-down method” of Dixon (Annual Review Pharmacology Toxicology, 20, (1980), 441-462). […]

[3] = molecular target: Catalytic domain of MMP-9 (human recombinant) (Homo sapiens, UniProt P14780); assay: biochemical; conditions: read-out: Average Percent Inhibition (MMP-9)
Sequence of Catalytic domain of MMP-9 (human recombinant) (P14780 107-444 limits assumed): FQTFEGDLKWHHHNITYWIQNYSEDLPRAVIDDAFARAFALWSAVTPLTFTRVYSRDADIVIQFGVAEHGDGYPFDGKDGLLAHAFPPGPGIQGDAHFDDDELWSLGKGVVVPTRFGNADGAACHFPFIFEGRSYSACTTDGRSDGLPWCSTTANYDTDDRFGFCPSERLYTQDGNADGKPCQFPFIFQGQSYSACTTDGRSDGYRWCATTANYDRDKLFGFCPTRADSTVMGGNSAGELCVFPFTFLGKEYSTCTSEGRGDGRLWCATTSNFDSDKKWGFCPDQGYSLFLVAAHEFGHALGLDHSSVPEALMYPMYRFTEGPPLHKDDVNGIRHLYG
Description: A concentration of MMP inhibitor of the present invention was tested (1 microMolar) in duplicate runs. […] The mixture of enzyme and compound in assay buffer was then thoroughly mixed and incubated for 60 minutes at 37° C. Upon the completion of incubation, the assay was started by the addition of 10 μM of fluorescent substrate DNP-Pro-Cha-Gly-Cys(Me)-His-Ala-Lys(n-Me-Abz)-NH2 [SEQ ID NO: 1][Cha=β-cyclohexylalanyl; Abz=2-aminobenzoyl(anthraniloyl)] (Kd˜7 microMolar). The fluorescent product, DnpPChaG, was then measured at excitation of 365 nm and emission 450 nm by an automatic plate multireader at 37° C.

[4] = tested on: spinal nerve ligation (SNL) mouse model, mechanical allodynia; assay: Intraperitoneal (i.p.) administration in the SNL mouse model of pain, von Frey tactile allodynia test; assay type: in vivo
From the text: as §1, with “The threshold force necessary for paw withdrawal decreases dramatically after the nerve surgery. Potent pain inhibitors will reverse this affect resulting in greater force needing to be applied to cause the rodent paw to withdrawal.” left out
as §2

mechanical nociception = conditions: in vivo; cited from earlier work
humans = conditions: clinical; cited from earlier work
[5] = tested on: chronic constriction injury (CCI)-mouse model; conditions: epineural daily injections, after the third day; cited from earlier work

With `Cc1ccc(C#Cc2ccc(S(=O)(=O)N[C@H](Cc3c[nH]c4ccccc34)C(=O)O)s2)cc1` [Compound 5, (R)-3-(1H-Indol-3-yl)-2-(5-p-tolylethynyl-thiophene-2-sulfonylamino)-propionic acid] the “% Mean Remaining Parent with NADPH (%)” value [1] was 83%, the “% Mean Remaining Parent without NADPH (%)” value [1] was 88% and the “50% paw withdrawal threshold, mean, Day (-2) Pre-operative Baseline” value [2] was 1.265 g.
In the case of `[2H]C([2H])([2H])c1ccc(C#Cc2ccc(S(=O)(=O)N[C@H](Cc3c[nH]c4ccccc34)C(=O)O)s2)cc1` [Compound 10, (R)-3-(1H-Indol-3-yl)-2-[5-(4-trideuteromethyl-phenylethynyl)-thiophene-2-sulfonylamino]-propionic acid-(D3, 98%)], the “% Mean Remaining Parent with NADPH (%)” value [1] is reported as 85%, the “% Mean Remaining Parent without NADPH (%)” value [1] is reported as 91% and the “50% paw withdrawal threshold, mean, Day (-2) Pre-operative Baseline” value [2] is reported as 1.268 g. For the same compound, the “Reversal of allodynia (in words)” value ([2]; i.t., as compared to vehicle and compound #5) was “almost complete reversal of allodynia”, the inhibition at 1 µM [3] was 78% and the “Reversal of mechanical allodynia (in words)” value ([4]; i.p. approx. 3.3 mg/Kg daily) was “complete reversal of mechanical alodynia by day 5”. The “Duration of effect after last injection (in words)” value ([4]; i.p., 48 hours (day 6) from the last injection (day 4)) was “rather prolonged effect”.
For `CNC(=O)[C@H](Cc1c[nH]c2ccccc12)NC(=O)[C@@H](CC(=O)NO)CC(C)C` [GM6001], the “Effect on mechanical nociception (in words)” value (mechanical nociception) is listed as “found to attenuate mechanical nociception”.
In the case of `CNC(=O)[C@@H](NC(=O)[C@H](CC(C)C)[C@H](O)C(=O)NO)C(C)(C)C` [Marimastat], the “Toxicities in humans (in words)” value (humans) is given as “time-dependent and dose-dependent musculoskeletal toxicities (arthralgia, myalgia, tendinitis)”.
For `CC(C)C[C@H](CC(=O)NO)C(=O)N[C@@H](Cc1ccc2ccccc2c1)C(=O)N[C@@H](C)C(N)=O` [TAPI-0], the “Effect on mechanical allodynia and thermal hyperalgesia (in words)” value [5] is listed as “able to block both mechanical allodynia and thermal hyperalgesia”.
